These results are taken from PubChem BioAssay AID504748 (National Center for Advancing Translational Sciences (NCATS), 2011).

The subject of the data set is mouse liver microsomes, percent remaining, LC-MS/MS. In words: Inhibitors of N370S glucocerebrosidase as a Potential Chaperone Treatment of Gaucher Disease: Metabolic Stability Profile. To be noted: at 5 µM; stronger effect = higher value. An excerpt:
Glucocerebrosidase (GC) catalyzes the hydrolysis of beta-glucocerebroside to glucose and ceramide in lysosomes. Mutations in the glucocerebrosidase gene result in Gaucher disease, an autosomal recessive lysosomal storage disorder. Many of the mutations encountered in patients with Gaucher disease are missense alterations that may cause misfolding, decreased stability and/or mistrafficking of this lysosomal protein. […] These inhibitors include iminosugar analogs and three non-iminosugar inhibitors identified from a previous HTS of 62,000 compounds with the wild type recombinant enzyme. After further testing a probe has been identified and was characterized though AMDE tests. Mouse liver microsomes are created through broken up endoplasmic reticulum from mouse liver. These liver microsomes contain many drug metabolizing enzymes, such as Cytochome P-450s and flavin-containing monooxygenases. […] NIH Chemical Genomics Center [NCGC] NIH Molecular Libraries Probe Production Centers Network [MLPCN] MLPCN Grant: MH086442-01 Assay Submitter (PI): Wei Zheng
5uM of compound is incubated with mouse liver microsome; the reference compounds are verapamil and warfarin. Compounds are incubated and samples are analyzed with LC-MS/MS.

On to `S=C(NCCCc1cnc[nH]1)NCCCN(Cc1ccc(Cl)c(Cl)c1)c1ccc(Br)cn1`, for which the percent remaining is 102%.
